Tested on: 556581-035-R-J1-PDC complex spheroid growth
Assay: Anticancer human tumor 556581-035-R-J1-PDC patient-derived ovarian carcinoma cell line growth inhibition [Asc]
Conditions: for IC50: curve of first compound; for viability, T/C: stronger effect = lower value
Method: Multicellular complex tumor spheroid response to apoptosis pathway targeting inhibitors Alrizomadlin, Pelcitoclax, and Dasminapant in combination with a variety of drugs and investigational agents in selected tumor cell lines
The MDM2 inhibitor alrizomadlin, the Bcl-2/Bcl-xL inhibitor pelcitoclax, and the IAPs inhibitor dasminapant were evaluated both individually and in combination with standard of care and investigational anticancer small molecules within a complex spheroid model of solid tumors. . Complex spheroids include a stromal component modeled by human endothelial cells (HUVEC) and fibroblasts modeled by human mesenchymal stem cells (MSCs). The concentration ranges selected for each drug and investigational agent were based upon clinically achievable concentrations if the clinical Cmax of the agent was known.
Compounds. The drugs and investigational agents: alrizomadlin (APG-115; NSC831270), pelcitoclax (APG-1252; NSC835773), dasminapant (APG-1387;NSC834197), TAK-243 (NSC785004), copanlisib (NSC809693), olaparib (NSC753686), talazoparib (NSC767125), cobimetinib (NSC 768068), eltanexor (KPT-8602, NSC 794443), abemaciclib (NSC 768073), sotorasib (NSC818433), adagrasib (NSC 831453), MRTX-1133 (NSC 836407), Iadademestat (ORY1001, NSC 806812), and RMC-4630 (NSC839698), were obtained from the NCI Developmental Therapeutics Program Chemical Repository. The FDA-approved anticancer drug set is available from the Developmental Therapeutics Program at https://dtp.cancer.gov/organization/dscb/obtaining/available plates.htm. […] The stock solutions were prepared in dimethyl sulfoxide (DMSO, Sigma-Aldrich, St. Louis, MO, cat. D2650) at 800-fold the tested concentration and stored at -70 degrees C prior to their use. All drugs and investigational agents were tested over a range starting from a high concentration at or near the clinical Cmax and decreasing in half-log increments. If the clinical Cmax for an agent had not been determined, the highest concentration tested was 10 microM.
The patient-derived cancer (PDC) cell lines include five colon adenocarcinomas: 186277-243-T-J2-PDC, 616215-338-R-J1-PDC, 439559-082-T-J2-PDC, 463943-066-T-J2-PDC, and 519858-162-T-J1-PDC; three pancreatic carcinomas: 323965-272-R-J2-PDC, 521955-158-R6-J3-PDC, and 521955-158-R2-J5-PDC; two uterine sarcomas: 327498-152-R-J2-PDC and 993429-296-R-J1-PDC; two rhabdomyosarcomas: 755483-174-R-J1-PDC and 772245-204-R-J1-PDC; two soft tissue sarcomas: 126254-015-R-J1-PDC and 494315-158-R-J1-PDC; two malignant fibrous histiocytomas: 317291-083-R-J1-PDC and 596521-263-R-J1-PDC; two breast carcinomas: 171881-019-R-J1-PDC and 885512-296-R-J2-PDC; and one ovarian carcinoma: 6556581-035-R-J-PDC were obtained from the NCI PDMR, (https://pdmr.cancer.gov). The established cell lines HSSY-2 synovial sarcoma (RRID:CVCL 8719), SYO-1 synovial sarcoma (RRID:CVCL_7146), MPNST malignant peripheral neural sheath tumor were obtained from the Sloan Kettering Institute. The following established cell lines were purchased from the American Type Culture Collection (ATCC, Manassas, VA), Sor the received from the NCI repository:, PANC-1 pancreatic carcinoma (CRL-1469, RRID:CVCL_0480), OVCAR-5 ovarian carcinoma (RRID:CVCL_1628), OVCAR-8 ovarian carcinoma (RRID:CVCL_1629), , MCF-7 breast carcinoma (CRL-12584, RRID:CVCL_0031), MDA-MB-231 breast carcinoma (CRL-12532, RRID:CVCL_0062), NCI-H1876 small cell lung carcinoma (CRL-5902, RRID:CVCL_1503), NCI-H510A small cell lung carcinoma (HTB-184, RRID:CVCL_1565), NCI-H1417 (CRL-5869, RRID:CVCL_1469), and NCI-H196 small cell lung carcinoma (CRL-5823, RRID:CVCL_1509). Dr. Peter Houghton (Greehey Children's Cancer Research Institute, University of Texas Health Science Center, San Antonio, TX) provided Rh-18 rhabdomyosarcoma (RRID:CVCL_1659). Pooled donor human umbilical vein endothelial cells (HUVEC, Lonza, cat. CC-2519) and human mesenchymal stem cells (hMSC, Lonza, cat. PT-2501) were purchased from Lonza (Walkersville, MD).
Cell Culture. […]

[1] = second compound 0.1 µM, first compound 0.000949 µM
[2] = second compound 0.1 µM, first compound 0.003 µM
[3] = second compound 0.1 µM, first compound 0.00949 µM
[4] = second compound 0.1 µM, first compound 0.03 µM
[5] = second compound 0.1 µM, first compound 0.0949 µM
[6] = second compound 0.1 µM, first compound 0.3 µM
[7] = second compound 0.316 µM, first compound 0.000949 µM
[8] = second compound 0.316 µM, first compound 0.003 µM
[9] = second compound 0.316 µM, first compound 0.00949 µM
[10] = second compound 0.316 µM, first compound 0.03 µM
[11] = second compound 0.316 µM, first compound 0.0949 µM
[12] = second compound 0.316 µM, first compound 0.3 µM
[13] = second compound 1 µM, first compound 0.000949 µM
[14] = second compound 1 µM, first compound 0.003 µM
[15] = second compound 1 µM, first compound 0.00949 µM
[16] = second compound 1 µM, first compound 0.03 µM
[17] = second compound 1 µM, first compound 0.0949 µM
[18] = second compound 1 µM, first compound 0.3 µM
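Note: spheroids exposed to agents for 7 days before viability read.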

| Compound | IC50 (second compound 0.1 µM) | IC50 (second compound 0.316 µM) | IC50 (second compound 1 µM) | viability, T/C [1] | viability, T/C [2] | viability, T/C [3] | viability, T/C [4] | viability, T/C [5] | viability, T/C [6] | viability, T/C [7] | viability, T/C [8] | viability, T/C [9] | viability, T/C [10] | viability, T/C [11] | viability, T/C [12] | viability, T/C [13] | viability, T/C [14] | viability, T/C [15] | viability, T/C [16] | viability, T/C [17] | also measured |
| --- | --- | --- | --- | --- | --- | --- | --- | --- | --- | --- | --- | --- | --- | --- | --- | --- | --- | --- | --- | --- | --- |
| NC(=O)C(=Cn1cnc(-c2cc(C(F)(F)F)cc(C(F)(F)F)c2)n1)c1cncnc1 + CNC(C)C(=O)NC1CN(S(=O)(=O)c2cccc(S(=O)(=O)N3CCC4CCC(C(=O)NC(c5ccccc5)c5ccccc5)N4C(=O)C(NC(=O)C(C)NC)C3)c2)CCC2CCC(C(=O)NC(c3ccccc3)c3ccccc3)N2C1=O | > 300 nM | > 300 nM | > 300 nM | 70.7% | 79.5% | 76.1% | 50% | 64.1% | 63.3% | 76.5% | 75.8% | 71.7% | 65.8% | 65.3% | 62.2% | 76.9% | 73% | 66.7% | 63% | 59.7% | IC50 (second compound 0.01 µM): > 300 nM; IC50 (second compound 0.0316 µM): > 300 nM; viability, T/C (second compound 0.01 µM, first compound 0.000949 µM): 93%; viability, T/C (second compound 0.01 µM, first compound 0.003 µM): 85.2%; viability, T/C (second compound 0.01 µM, first compound 0.00949 µM): 63.7%; viability, T/C (second compound 0.01 µM, first compound 0.03 µM): 66.8%; viability, T/C (second compound 0.01 µM, first compound 0.0949 µM): 90.1%; viability, T/C (second compound 0.01 µM, first compound 0.3 µM): 72.6%; viability, T/C (second compound 0.0316 µM, first compound 0.000949 µM): 105%; viability, T/C (second compound 0.0316 µM, first compound 0.003 µM): 86%; viability, T/C (second compound 0.0316 µM, first compound 0.00949 µM): 87.9%; viability, T/C (second compound 0.0316 µM, first compound 0.03 µM): 79.2%; viability, T/C (second compound 0.0316 µM, first compound 0.0949 µM): 75.7%; viability, T/C (second compound 0.0316 µM, first compound 0.3 µM): 82%; viability, T/C [18]: 53.3% |
| NC(=O)C(=Cn1cnc(-c2cc(C(F)(F)F)cc(C(F)(F)F)c2)n1)c1cncnc1 + Cc1c(S(C)(=O)=O)c(-c2cc(F)cc(N3CCN(c4ccc(NS(=O)(=O)c5ccc(NC(CCN6CCC(C(=O)OCCCP(=O)(O)O)CC6)CSc6ccccc6)c(S(=O)(=O)C(F)(F)F)c5)cc4)CC3)c2)c(-c2ccc(Cl)cc2)n1C(C)C | > 300 nM | > 300 nM | > 300 nM | 70.9% | 72.3% | 75% | 57.8% | 75.9% | 66.1% | 81.2% | 75.6% | 80.3% | 69.5% | 66.3% | 52.9% | 78% | 63.5% | 63.8% | 68.5% | 52.9% | IC50 (second compound 3.16 µM): 148 nM; IC50 (second compound 10 µM): 87.6 nM; viability, T/C [18]: 59.5%; viability, T/C (second compound 3.16 µM, first compound 0.000949 µM): 57.2%; viability, T/C (second compound 3.16 µM, first compound 0.003 µM): 61.2%; viability, T/C (second compound 3.16 µM, first compound 0.00949 µM): 70.3%; viability, T/C (second compound 3.16 µM, first compound 0.03 µM): 63.9%; viability, T/C (second compound 3.16 µM, first compound 0.0949 µM): 59.6%; viability, T/C (second compound 3.16 µM, first compound 0.3 µM): 34%; viability, T/C (second compound 10 µM, first compound 0.000949 µM): 73%; viability, T/C (second compound 10 µM, first compound 0.003 µM): 63.9%; viability, T/C (second compound 10 µM, first compound 0.00949 µM): 61%; viability, T/C (second compound 10 µM, first compound 0.03 µM): 55%; viability, T/C (second compound 10 µM, first compound 0.0949 µM): 49.2%; viability, T/C (second compound 10 µM, first compound 0.3 µM): 45.6% |

— PubChem BioAssay AID1963450 (Molecular Pharmacology Branch, DTP, NCI, 2024)
